Measured values from patent US20170311606A1, “SYNERGISTIC BACILLUS THURINGIENSIS SUBSP. KURSTAKI AND FLUBENDIAMIDE MIXTURES FOR BEET ARMYWORM, SOYBEAN LOOPER, CORN EARWORM, AND CABBAGE LOOPER CONTROL” (priority 2016, published 2017).
Read-outs that look alike come from different tables or passages of the source.

Columns and labels:
diamondback moth larvae = assay: Leaf dip bioassay, diamondback moth larvae; assay type: in vivo; conditions: Plutella xylostella, foliar, Btk 0.54 ppm, flubendiamide 0.215 ppm, alone or mixed, read-out: % Efficacy
beet armyworm larvae = assay: Leaf dip bioassay, beet armyworm larvae; assay type: in vivo; conditions: Spodoptera exigua, foliar, alone or mixed, read-out: % Efficacy
Description: (§1) The present invention is not limited to the products or formulation types used herein. In each example below, the studies were conducted as follows.
(§2) For these tests, standardized laboratory leaf dip methods were used to inoculate plant material with treatment(s). Dry, treated leaves were placed into Petri dishes (100×25 mm) containing filter paper wetted with 500 μl of distilled H2O (“dH2O”). Each dish was then infested with between 5 and 10 larvae, dependent on species. Efficacy ratings were taken at specified intervals. Synergy ratings were calculated for each test.
(§3) % Cexp=A+B−(AB/100), where % Cexp is the expected efficacy and “in which A and B are the control levels given by the single [insecticides]. […] Adopting a conservative approach, Applicant determined synergy to be present at ratios of >1.15.

[1] = system: southwestern corn borer larvae; assay: Leaf dip bioassay, southwestern corn borer larvae; assay type: in vivo; conditions: foliar, Btk 0.54 ppm, flubendiamide 0.215 ppm, alone or mixed, read-out: % Efficacy
Description: as §1, §2, §3

sugarcane borer larvae = assay: Leaf dip bioassay, sugarcane borer larvae; assay type: in vivo; conditions: foliar, Btk 0.54 ppm, flubendiamide 2.15 ppm, alone or mixed, read-out: % Efficacy
Description: as §1, §2, §3

soybean looper larvae = assay: Leaf dip bioassay, soybean looper larvae; assay type: in vivo, Chrysodeixis includens; conditions: foliar, Btk 0.54 ppm, flubendiamide 3.9 ppm, alone or mixed, read-out: % Efficacy
Description: as §1, §2, §3

cabbage looper larvae = assay: Leaf dip bioassay, cabbage looper larvae; assay type: in vivo; conditions: Trichoplusia ni, foliar, Btk 0.54 ppm, flubendiamide 0.49 ppm, alone or mixed, read-out: % Efficacy
Description: as §1, §2, §3

corn earworm larvae = assay: Leaf dip bioassay, corn earworm larvae; assay type: in vivo; conditions: Helicoverpa zea, foliar, Btk 0.54 ppm, flubendiamide 0.975 ppm, alone or mixed, read-out: % Efficacy
Description: as §1, §2, §3

Question: `Cc1cc(C(F)(C(F)(F)F)C(F)(F)F)ccc1NC(=O)c1cccc(I)c1C(=O)NC(C)(C)CS(C)(=O)=O` [Flubendiamide, 3-iodo-N′-(2-mesyl-1,1-dimethylethyl)-N-{4-[1,2,2,2-tetrafluoro-1-(trifluoromethyl)ethyl]-o-tolyl}phthalamide] was tested. Which Emax at 0.215 ppm (diamondback moth larvae; 24 h after treatment) did it give?
Answer: 7%

Question: And the Emax at 0.215 ppm (diamondback moth larvae; 48 h after treatment)?
Answer: 19%

Question: What about the Emax at 0.49 ppm (beet armyworm larvae; 24 h after treatment) of the same molecule?
Answer: 6%

Question: What about the Emax at 0.49 ppm (beet armyworm larvae; 48 h after treatment) of the same molecule?
Answer: 14%

Question: What about the Emax at 0.215 ppm ([1]; 24 h after treatment) of the same molecule?
Answer: 40%

Question: And the Emax at 0.215 ppm ([1]; 48 h after treatment)?
Answer: 48%

Question: And the Emax at 2.15 ppm (sugarcane borer larvae; 24 h after treatment)?
Answer: 28%

Question: What about the Emax at 2.15 ppm (sugarcane borer larvae; 48 h after treatment) of the same molecule?
Answer: 40%

Question: And the Emax at 3.9 ppm (soybean looper larvae; 24 h after treatment)?
Answer: 4%

Question: What about the Emax at 3.9 ppm (soybean looper larvae; 48 h after treatment) of the same molecule?
Answer: 16%

Question: What about the Emax at 0.49 ppm (cabbage looper larvae; 24 h after treatment) of the same molecule?
Answer: 7%

Question: And the Emax at 0.49 ppm (cabbage looper larvae; 48 h after treatment)?
Answer: 19%

Question: And the Emax at 0.975 ppm (corn earworm larvae; 24 h after treatment)?
Answer: 14%

Question: And the Emax at 0.975 ppm (corn earworm larvae; 48 h after treatment)?
Answer: 24%
